In ChEMBL document CHEMBL1909046, “DrugMatrix in vitro pharmacology data”:

Experiments:
Androgen receptor = molecular target: T1, Androgen receptor (Rattus norvegicus, UniProt P15207)
T1 sequence (P15207 whole entry): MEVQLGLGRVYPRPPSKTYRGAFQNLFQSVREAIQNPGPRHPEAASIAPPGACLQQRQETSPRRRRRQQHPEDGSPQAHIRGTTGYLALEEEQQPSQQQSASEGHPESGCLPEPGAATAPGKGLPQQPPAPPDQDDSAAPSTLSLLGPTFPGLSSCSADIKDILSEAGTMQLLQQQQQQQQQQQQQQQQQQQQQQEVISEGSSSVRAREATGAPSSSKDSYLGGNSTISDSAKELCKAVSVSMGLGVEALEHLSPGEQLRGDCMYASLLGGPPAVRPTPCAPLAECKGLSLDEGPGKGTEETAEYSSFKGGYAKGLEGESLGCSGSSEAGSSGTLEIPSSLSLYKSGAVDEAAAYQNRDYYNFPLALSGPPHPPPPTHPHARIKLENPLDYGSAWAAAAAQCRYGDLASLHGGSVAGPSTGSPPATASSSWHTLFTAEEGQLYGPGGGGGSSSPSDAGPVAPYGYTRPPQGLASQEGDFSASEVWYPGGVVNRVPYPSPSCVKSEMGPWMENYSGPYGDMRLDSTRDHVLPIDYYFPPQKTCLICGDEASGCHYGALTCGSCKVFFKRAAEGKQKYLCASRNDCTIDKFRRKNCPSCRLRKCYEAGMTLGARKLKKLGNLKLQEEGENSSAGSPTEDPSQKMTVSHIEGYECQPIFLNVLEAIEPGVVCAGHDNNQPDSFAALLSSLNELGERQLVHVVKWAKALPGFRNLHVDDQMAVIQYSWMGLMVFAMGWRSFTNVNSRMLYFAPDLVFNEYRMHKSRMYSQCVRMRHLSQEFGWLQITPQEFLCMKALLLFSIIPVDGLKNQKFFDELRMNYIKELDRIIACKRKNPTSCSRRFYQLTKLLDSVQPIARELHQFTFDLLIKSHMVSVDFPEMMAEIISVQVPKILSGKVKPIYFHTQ

Cytochrome P450 1A2 = molecular target: T2, Cytochrome P450 1A2 (Homo sapiens, UniProt P05177)
T2 sequence (P05177 whole entry): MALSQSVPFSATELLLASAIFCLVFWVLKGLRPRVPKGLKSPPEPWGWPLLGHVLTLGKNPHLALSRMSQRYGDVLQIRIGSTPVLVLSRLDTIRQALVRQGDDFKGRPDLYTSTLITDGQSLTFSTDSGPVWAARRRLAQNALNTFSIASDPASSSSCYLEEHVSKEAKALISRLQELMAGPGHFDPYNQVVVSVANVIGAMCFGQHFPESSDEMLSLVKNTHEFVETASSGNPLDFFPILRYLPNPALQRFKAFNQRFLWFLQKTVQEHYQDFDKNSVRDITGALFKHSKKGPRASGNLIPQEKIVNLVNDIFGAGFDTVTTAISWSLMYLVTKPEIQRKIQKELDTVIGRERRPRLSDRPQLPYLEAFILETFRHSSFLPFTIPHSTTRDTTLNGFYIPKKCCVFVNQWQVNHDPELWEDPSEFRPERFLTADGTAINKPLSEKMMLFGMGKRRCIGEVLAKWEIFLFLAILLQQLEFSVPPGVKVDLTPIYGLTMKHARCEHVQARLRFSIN

Cytochrome P450 2D6 = Cytochrome P450 2D6 (Homo sapiens, UniProt P10635)
Note: in other assays of this panel Not Active means under 50% inhibition at 10 µM.

Cytochrome P450 2D6, sequence (P10635 whole entry): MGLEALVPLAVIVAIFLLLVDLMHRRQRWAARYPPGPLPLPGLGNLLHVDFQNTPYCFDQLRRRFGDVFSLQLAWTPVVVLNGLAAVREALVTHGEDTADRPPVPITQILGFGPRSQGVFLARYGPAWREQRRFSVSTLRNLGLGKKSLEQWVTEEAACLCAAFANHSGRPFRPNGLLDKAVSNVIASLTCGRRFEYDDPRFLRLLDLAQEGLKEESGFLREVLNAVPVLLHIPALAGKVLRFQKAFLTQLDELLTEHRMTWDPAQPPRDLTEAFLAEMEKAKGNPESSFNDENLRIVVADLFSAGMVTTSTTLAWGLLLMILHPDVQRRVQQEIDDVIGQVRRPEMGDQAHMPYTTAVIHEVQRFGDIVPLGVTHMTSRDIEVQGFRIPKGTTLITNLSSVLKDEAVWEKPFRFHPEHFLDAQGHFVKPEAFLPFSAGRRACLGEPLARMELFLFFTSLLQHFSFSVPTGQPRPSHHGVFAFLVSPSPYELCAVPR

SMILES | IC50 (Androgen receptor) | other results
N[C@H](CSC(=S)NCc1ccccc1)C(=O)O | Not Active | 
CC(C)NCC(O)COc1cccc2ccccc12 (stereo not drawn) [PROPRANOLOL] |  | IC50 (Cytochrome P450 1A2): 4 µM
COc1cc(NS(=O)(=O)c2ccc(N)cc2)nc(OC)n1 [SULFADIMETHOXINE] | Not Active | 
CC(=O)N[C@@H]1[C@H](Oc2c3cc4cc2Oc2ccc(cc2Cl)[C@@H](O[C@@H]2O[C@@H](CO)[C@@H](O)[C@H](O)[C@@H]2NC(C)=O)[C@@H]2NC(=O)[C@H](NC(=O)[C@@H]4NC(=O)[C@H]4NC(=O)[C@@H](Cc5ccc(c(Cl)c5)O3)NC(=O)[C@H](N)c3ccc(O)c(c3)Oc3cc(O)cc4c3)c3ccc(O)c(c3)-c3c(O[C@H]4O[C@H](CO)[C@@H](O)[C@@H](O)[C@@H]4O)cc(O)cc3[C@@H](C(=O)O)NC2=O)O[C@@H](CO)[C@@H](O)[C@@H]1O | Not Active | 
CO[C@H]1/C=C/O[C@@]2(C)Oc3c(C)c(O)c4c(c3C2=O)C2=NC3(CCN(CC(C)C)CC3)NC2=C(NC(=O)/C(C)=C\C=C\[C@H](C)[C@H](O)[C@@H](C)[C@@H](O)[C@@H](C)[C@H](OC(C)=O)[C@@H]1C)C4=O [RIFABUTIN] | Not Active | 
Clc1ccc2c(c1)C(N1CCNCC1)=Nc1ccccc1O2 [AMOXAPINE] |  | IC50 (Cytochrome P450 2D6): 10 µM
C[C@@H](N)[C@H]1CC[C@H](C(=O)Nc2ccncc2)CC1 [Y-27632] | Not Active | 
COc1cc2c(c(OC)c1OC)-c1ccc(OC)c(=O)cc1[C@@H](NC(C)=O)CC2 [COLCHICINE] | Not Active | 
